Source: patent publication US20240101521A1, “DIAMINOTRIAZINE COMPOUNDS” (BASF SE, priority 2021, published 2024)

Legend:
Assay in all cases: greenhouse pre-emergence herbicidal test
Format in all cases: in vivo
Alopecurus myosuroides = conditions: scale 0 to 100
Excerpt: (§1) The culture containers used were plastic flowerpots containing loamy sand with approximately 3.0% of humus as the substrate. The seeds of the test plants were sown separately for each species.
(§2) For the pre-emergence treatment, the active ingredients, which had been suspended or emulsified in water, were applied directly after sowing by means of finely distributing nozzles. The containers were irrigated gently to promote germination and growth and subsequently covered with transparent plastic hoods until the plants had rooted. This cover caused uniform germination of the test plants, unless this had been impaired by the active ingredients. For the post-emergence treatment, the test plants were first grown to a height of 3 to 15 cm, depending on the plant habit, and only then treated with the active ingredients which had been suspended or emulsified in water. For this purpose, the test plants were either sown directly and grown in the same containers, or they were first grown separately as seedlings and transplanted into the test containers a few days prior to treatment.
(§3) Depending on the species, the plants were kept at 10-25° C. or 20-35° C., respectively.
(§4) The test period extended over 2 to 4 weeks. During this time, the plants were tended, and their response to the individual treatments was evaluated.
(§5) Evaluation was carried out using a scale from 0 to 100. 100 means no emergence of the plants, or complete destruction of at least the aerial moieties, and 0 means no damage, or normal course of growth. A moderate herbicidal activity is given at values of at least 60, a good herbicidal activity is given at values of at least 70, and a very good herbicidal activity is given at values of at least 85.
(§6) The plants used in the greenhouse experiments were of the following species: […]

Echinochloa crus-galli = conditions: scale 0 to 100
Excerpt: as §1, §2, §3, §4, §5, §6

Setaria faberi = conditions: scale 0 to 100
Excerpt: as §1, §2, §3, §4, §5, §6

Abutilon theophrasti = conditions: scale 0 to 100
Excerpt: as §1, §2, §3, §4, §5, §6

Digitaria sanguinalis = conditions: scale 0 to 100
Excerpt: as §1, §2, §3, §4, §5, §6

Amaranthus retroflexus = conditions: scale 0 to 100
Excerpt: as §1, §2, §3, §4, §5, §6

Apera spica-venti = conditions: 31 g/ha, scale 0 to 100
Excerpt: as §1, §2, §3, §4, §5, §6

With `COc1c(Cl)cc(F)c(F)c1Nc1nc(N)nc(C(F)CC(C)C)n1` (racemic) [Example 12] the herbicidal activity (Alopecurus myosuroides; pre-emergence, 250 g/ha) was 100%, the herbicidal activity (Echinochloa crus-galli; pre-emergence, 250 g/ha) was 100% and the herbicidal activity (Setaria faberi; pre-emergence, 250 g/ha) was 100%.
With `COc1c(Cl)ccc(F)c1Nc1nc(N)nc(C(C)(C)F)n1` [Example 2] the herbicidal activity (Abutilon theophrasti; pre-emergence, 62,5 g/ha) was 100%, the herbicidal activity (Digitaria sanguinalis; pre-emergence, 62,5 g/ha) was 100% and the herbicidal activity (Echinochloa crus-galli; pre-emergence, 62,5 g/ha) was 100%.
`COc1c(Cl)cc(C)c(F)c1Nc1nc(N)nc(C(C)(C)F)n1` [Example 3] was tested, and the herbicidal activity (Abutilon theophrasti; pre-emergence, 62,5 g/ha) was 100%, the herbicidal activity (Digitaria sanguinalis; pre-emergence, 62,5 g/ha) was 100% and the herbicidal activity (Echinochloa crus-galli; pre-emergence, 62,5 g/ha) was 100%.
In the case of `COc1c(Br)ccc(F)c1Nc1nc(N)nc(C(C)(C)F)n1` [Example 4, N4-(3-bromo-6-fluoro-2-methoxy-phenyl)-6-(1-fluoro-1-methyl-ethyl)-1,3,5-triazine-2,4-diamine], the herbicidal activity (Abutilon theophrasti; pre-emergence, 62,5 g/ha) is reported as 100%, the herbicidal activity (Digitaria sanguinalis; pre-emergence, 62,5 g/ha) is reported as 100% and the herbicidal activity (Echinochloa crus-galli; pre-emergence, 62,5 g/ha) is reported as 100%.
Compound `COc1c(Br)ccc(F)c1Nc1nc(N)nc(C2(F)CCCCC2)n1` [Example 5] has a herbicidal activity (Abutilon theophrasti; pre-emergence, 250 g/ha) of 90%, a herbicidal activity (Digitaria sanguinalis; pre-emergence, 250 g/ha) of 100% and a herbicidal activity (Echinochloa crus-galli; pre-emergence, 250 g/ha) of 85%.
Work on `COc1c(Cl)cc(F)c(F)c1Nc1nc(N)nc(C2(F)CCCC2)n1` [Example 11] yielded a herbicidal activity (Alopecurus myosuroides; pre-emergence, 250 g/ha) of 100%, a herbicidal activity (Echinochloa crus-galli; pre-emergence, 250 g/ha) of 100% and a herbicidal activity (Setaria faberi; pre-emergence, 250 g/ha) of 100%.
Compound `CC(C)(F)c1nc(N)nc(Nc2c(F)ccc(Br)c2OC2CC2)n1` [Example 13] has a herbicidal activity (Alopecurus myosuroides; pre-emergence, 62,5 g/ha) of 100%, a herbicidal activity (Echinochloa crus-galli; pre-emergence, 62,5 g/ha) of 100% and a herbicidal activity (Setaria faberi; pre-emergence, 62,5 g/ha) of 100%.
Work on `Nc1nc(Nc2c(F)ccc(Br)c2OC2CC2)nc(C2(F)CCCC2)n1` [Example 14] yielded a herbicidal activity (Alopecurus myosuroides; pre-emergence, 125 g/ha) of 98%, a herbicidal activity (Echinochloa crus-galli; pre-emergence, 125 g/ha) of 98% and a herbicidal activity (Setaria faberi; pre-emergence, 125 g/ha) of 100%.
In the case of `CC#CCOc1c(Br)cc(F)c(F)c1Nc1nc(N)nc(C(C)(C)F)n1` [Example 15], the herbicidal activity (Alopecurus myosuroides; pre-emergence, 125 g/ha) is reported as 100%, the herbicidal activity (Echinochloa crus-galli; pre-emergence, 125 g/ha) is reported as 100% and the herbicidal activity (Setaria faberi; pre-emergence, 125 g/ha) is reported as 100%.
For `CC(C)(F)c1nc(N)nc(Nc2c(F)c(F)cc(Cl)c2OCC#CC2CC2)n1` [Example 30], the herbicidal activity (Abutilon theophrasti; pre-emergence, 31 g/ha) was 100%, the herbicidal activity (Alopecurus myosuroides; pre-emergence, 31 g/ha) was 100% and the herbicidal activity (Setaria faberi; pre-emergence, 31 g/ha) was 100%.
For `COc1c(Cl)cc(F)c(F)c1Nc1nc(N)nc(C(C)(F)CCl)n1` (stereo not drawn) [Example 34], the herbicidal activity (Abutilon theophrasti; pre-emergence, 62,5 g/ha) was 100%, the herbicidal activity (Amaranthus retroflexus; pre-emergence, 62,5 g/ha) was 100% and the herbicidal activity (Echinochloa crus-galli; pre-emergence, 62,5 g/ha) was 100%.
For `COc1c(Cl)cc(F)c(F)c1Nc1nc(N)nc(C2(F)CC2)n1` [Example 35], the herbicidal activity (Abutilon theophrasti; pre-emergence, 62,5 g/ha) was 100%, the herbicidal activity (Amaranthus retroflexus; pre-emergence, 62,5 g/ha) was 100% and the herbicidal activity (Echinochloa crus-galli; pre-emergence, 62,5 g/ha) was 100%.
Compound `COc1c(Cl)cc(F)c(F)c1Nc1nc(N)nc(C(C)(C)OC)n1` [Example 36] has a herbicidal activity (Abutilon theophrasti; pre-emergence, 62,5 g/ha) of 100%, a herbicidal activity (Amaranthus retroflexus; pre-emergence, 62,5 g/ha) of 100% and a herbicidal activity (Echinochloa crus-galli; pre-emergence, 62,5 g/ha) of 100%.
`COc1c(Cl)cc(F)c(F)c1Nc1nc(N)nc(C(C)(C)Cl)n1` [Example 37] showed a herbicidal activity (Abutilon theophrasti; pre-emergence, 62,5 g/ha) of 98%, a herbicidal activity (Amaranthus retroflexus; pre-emergence, 62,5 g/ha) of 100% and a herbicidal activity (Echinochloa crus-galli; pre-emergence, 62,5 g/ha) of 100%.
`COc1c(Cl)cc(F)c(F)c1Nc1nc(N)nc(C(C)(F)F)n1` [Example 49, N4-(5-chloro-2,3-difluoro-6-methoxy-phenyl)-6-(1,1-difluoroethyl)-1,3,5-triazine-2,4-diamine] was tested, and the herbicidal activity (Abutilon theophrasti; pre-emergence, 62,5 g/ha) was 100%, the herbicidal activity (Amaranthus retroflexus; pre-emergence, 62,5 g/ha) was 100% and the herbicidal activity (Echinochloa crus-galli; pre-emergence, 62,5 g/ha) was 100%.
Compound `CC=C(Cl)COc1c(Cl)cc(F)c(F)c1Nc1nc(N)nc(C(C)(C)F)n1` [Example 53] has a herbicidal activity (Alopecurus myosuroides; pre-emergence, 62,5 g/ha) of 90%, a herbicidal activity (Echinochloa crus-galli; pre-emergence, 62,5 g/ha) of 98% and a herbicidal activity (Setaria faberi; pre-emergence, 62,5 g/ha) of 100%.
For `COc1c(Br)cc(F)c(F)c1Nc1nc(N)nc(C2(F)CC2)n1` [Example 55], the herbicidal activity (Abutilon theophrasti; pre-emergence, 62,5 g/ha) was 100%, the herbicidal activity (Amaranthus retroflexus; pre-emergence, 62,5 g/ha) was 100% and the herbicidal activity (Echinochloa crus-galli; pre-emergence, 62,5 g/ha) was 100%.
`COc1c(Cl)cc(Cl)c(F)c1Nc1nc(N)nc(C2(F)CCCC2)n1` [Example 60] gave a herbicidal activity (Amaranthus retroflexus; pre-emergence, 31 g/ha) of 100%, a herbicidal activity (Apera spica-venti) of 95% and a herbicidal activity (Setaria faberi; pre-emergence, 31 g/ha) of 98%.
`CC#CCOc1c(Cl)cc(Cl)c(F)c1Nc1nc(N)nc(C(C)(C)F)n1` [Example 61] gave a herbicidal activity (Abutilon theophrasti; pre-emergence, 31 g/ha) of 100%, a herbicidal activity (Amaranthus retroflexus; pre-emergence, 31 g/ha) of 100% and a herbicidal activity (Echinochloa crus-galli; pre-emergence, 31 g/ha) of 100%.
